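Step 1: Grow cells in 96-well plates. Step 2: Expose to compound for 48 hours at 5 concentrations. Step 3: Interpolate endpoints linearly; if unreached, use highest concentration. TGI denotes the concentration required for complete inhibition of growth.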
Experiments:
Experiment in all cases: inhibition of tumour cell growth, NCI panel, 48 h
786-0 renal = tested on: 786-0 renal
A498 renal = tested on: A498 renal
A549 NSCLC = tested on: A549 NSCLC
ACHN renal = tested on: ACHN renal
BT-549 breast = tested on: BT-549 breast
CAKI-1 renal = tested on: CAKI-1 renal
CCRF-CEM leukemia = tested on: CCRF-CEM leukemia
COLO 205 colon = tested on: COLO 205 colon
DU-145 prostate = tested on: DU-145 prostate
EKVX NSCLC = tested on: EKVX NSCLC
HCC-2998 colon = tested on: HCC-2998 colon
HCT-116 colon = tested on: HCT-116 colon
HCT-15 colon = tested on: HCT-15 colon
HL-60(TB) leukemia = tested on: HL-60(TB) leukemia
HOP-62 NSCLC = tested on: HOP-62 NSCLC
HOP-92 NSCLC = tested on: HOP-92 NSCLC
HS 578T breast = tested on: HS 578T breast
HT29 colon = tested on: HT29 colon
IGROV1 ovarian = tested on: IGROV1 ovarian
KM12 colon = tested on: KM12 colon
LOX IMVI melanoma = tested on: LOX IMVI melanoma
M14 melanoma = tested on: M14 melanoma
MALME-3M melanoma = tested on: MALME-3M melanoma
MCF7 breast = tested on: MCF7 breast
MDA-MB-231 breast = tested on: MDA-MB-231 breast
MDA-MB-435 = tested on: MDA-MB-435
MDA-N = tested on: MDA-N
MOLT-4 leukemia = tested on: MOLT-4 leukemia
NCI-H226 lung = tested on: NCI-H226 lung
NCI-H23 lung = tested on: NCI-H23 lung
NCI-H522 lung = tested on: NCI-H522 lung
NCI/ADR-RES ovarian = tested on: NCI/ADR-RES ovarian
OVCAR-3 ovarian = tested on: OVCAR-3 ovarian
OVCAR-4 ovarian = tested on: OVCAR-4 ovarian
OVCAR-5 ovarian = tested on: OVCAR-5 ovarian
OVCAR-8 ovarian = tested on: OVCAR-8 ovarian
PC-3 prostate = tested on: PC-3 prostate
RPMI-8226 leukemia = tested on: RPMI-8226 leukemia
RXF 393 renal = tested on: RXF 393 renal
SF-268 CNS = tested on: SF-268 CNS
SF-295 CNS = tested on: SF-295 CNS
SF-539 CNS = tested on: SF-539 CNS
SK-MEL-2 melanoma = tested on: SK-MEL-2 melanoma
SK-MEL-28 melanoma = tested on: SK-MEL-28 melanoma
SK-MEL-5 melanoma = tested on: SK-MEL-5 melanoma
SK-OV-3 ovarian = tested on: SK-OV-3 ovarian
SN12C renal = tested on: SN12C renal
SNB-19 CNS = tested on: SNB-19 CNS
SNB-75 CNS = tested on: SNB-75 CNS
SR leukemia = tested on: SR leukemia
SW-620 colon = tested on: SW-620 colon
T-47D breast = tested on: T-47D breast
TK-10 renal = tested on: TK-10 renal
U251 CNS = tested on: U251 CNS
UACC-257 melanoma = tested on: UACC-257 melanoma
UACC-62 melanoma = tested on: UACC-62 melanoma
UO-31 renal = tested on: UO-31 renal
K-562 leukemia = tested on: K-562 leukemia
NCI-H460 lung = tested on: NCI-H460 lung

## COc1ccc(C(OCC2OC(n3cc(C)c(=O)[nH]c3=O)CC2n2cc(Cn3cc(F)c(=O)[nH]c3=O)nn2)(c2ccccc2)c2ccccc2)cc1 (stereo not given)
786-0 renal
  TGI: 21.7 µM
A498 renal
  TGI: 28.6 µM
A549 NSCLC
  TGI: > 100 µM
ACHN renal
  TGI: 27.2 µM
BT-549 breast
  TGI: 28.8 µM
CAKI-1 renal
  TGI: 25 µM
CCRF-CEM leukemia
  TGI: 9.85 µM
COLO 205 colon
  TGI: 27 µM
DU-145 prostate
  TGI: 27.1 µM
EKVX NSCLC
  TGI: 23.3 µM
HCC-2998 colon
  TGI: 15.1 µM
HCT-116 colon
  TGI: 13.2 µM
HCT-15 colon
  TGI: 23.3 µM
HL-60(TB) leukemia
  TGI: 5.83 µM
HOP-62 NSCLC
  TGI: 25.7 µM
HOP-92 NSCLC
  TGI: 19.5 µM
HS 578T breast
  TGI: > 100 µM
HT29 colon
  TGI: > 100 µM
IGROV1 ovarian
  TGI: 36.4 µM
KM12 colon
  TGI: 14.3 µM
LOX IMVI melanoma
  TGI: > 100 µM
M14 melanoma
  TGI: 27.9 µM
MALME-3M melanoma
  TGI: 31.8 µM
MCF7 breast
  TGI: 34.7 µM
MDA-MB-231 breast
  TGI: 7.7 µM
MDA-MB-435
  TGI: 3.94 µM
MDA-N
  TGI: 3.53 µM
MOLT-4 leukemia
  TGI: 18.6 µM
NCI-H226 lung
  TGI: 36.7 µM
NCI-H23 lung
  TGI: 27.9 µM
NCI-H522 lung
  TGI: 21.5 µM
NCI/ADR-RES ovarian
  TGI: > 100 µM
OVCAR-3 ovarian
  TGI: 19.6 µM
OVCAR-4 ovarian
  TGI: 47.3 µM
OVCAR-5 ovarian
  TGI: 35.5 µM
OVCAR-8 ovarian
  TGI: > 100 µM
PC-3 prostate
  TGI: 31.3 µM
RPMI-8226 leukemia
  TGI: 8.93 µM
RXF 393 renal
  TGI: 49.6 µM
SF-268 CNS
  TGI: 35 µM
SF-295 CNS
  TGI: 19.4 µM
SF-539 CNS
  TGI: 23.9 µM
SK-MEL-2 melanoma
  TGI: 24.8 µM
SK-MEL-28 melanoma
  TGI: 24.9 µM
SK-MEL-5 melanoma
  TGI: 30.1 µM
SK-OV-3 ovarian
  TGI: 22.9 µM
SN12C renal
  TGI: 22.8 µM
SNB-19 CNS
  TGI: 22.8 µM
SNB-75 CNS
  TGI: 42.5 µM
SR leukemia
  TGI: 8.84 µM
SW-620 colon
  TGI: 21.4 µM
T-47D breast
  TGI: 24.4 µM
TK-10 renal
  TGI: 33.9 µM
U251 CNS
  TGI: 21.2 µM
UACC-257 melanoma
  TGI: 28 µM
UACC-62 melanoma
  TGI: 29.2 µM
UO-31 renal
  TGI: 23.6 µM

## O=c1c2cc3c(cc2[nH]c2ncccc12)OCO3
786-0 renal
  TGI: > 10 µM
A498 renal
  TGI: > 10 µM
A549 NSCLC
  TGI: > 10 µM
ACHN renal
  TGI: > 10 µM
BT-549 breast
  TGI: > 10 µM
CAKI-1 renal
  TGI: > 10 µM
CCRF-CEM leukemia
  TGI: > 10 µM
COLO 205 colon
  TGI: > 10 µM
DU-145 prostate
  TGI: > 10 µM
EKVX NSCLC
  TGI: > 10 µM
HCC-2998 colon
  TGI: > 10 µM
HCT-116 colon
  TGI: > 10 µM
HCT-15 colon
  TGI: > 10 µM
HL-60(TB) leukemia
  TGI: > 10 µM
HOP-62 NSCLC
  TGI: > 10 µM
HOP-92 NSCLC
  TGI: > 10 µM
HS 578T breast
  TGI: > 10 µM
HT29 colon
  TGI: > 10 µM
IGROV1 ovarian
  TGI: > 10 µM
K-562 leukemia
  TGI: > 10 µM
KM12 colon
  TGI: > 10 µM
LOX IMVI melanoma
  TGI: > 10 µM
M14 melanoma
  TGI: > 10 µM
MALME-3M melanoma
  TGI: > 10 µM
MCF7 breast
  TGI: > 10 µM
MDA-MB-231 breast
  TGI: > 10 µM
MDA-MB-435
  TGI: > 10 µM
MDA-N
  TGI: > 10 µM
MOLT-4 leukemia
  TGI: > 10 µM
NCI-H226 lung
  TGI: > 10 µM
NCI-H23 lung
  TGI: > 10 µM
NCI-H460 lung
  TGI: > 10 µM
NCI-H522 lung
  TGI: > 10 µM
NCI/ADR-RES ovarian
  TGI: > 10 µM
OVCAR-3 ovarian
  TGI: > 10 µM
OVCAR-4 ovarian
  TGI: > 10 µM
OVCAR-5 ovarian
  TGI: > 10 µM
OVCAR-8 ovarian
  TGI: > 10 µM
PC-3 prostate
  TGI: > 10 µM
RPMI-8226 leukemia
  TGI: > 10 µM
RXF 393 renal
  TGI: > 10 µM
SF-268 CNS
  TGI: > 10 µM
SF-295 CNS
  TGI: > 10 µM
SF-539 CNS
  TGI: > 10 µM
SK-MEL-2 melanoma
  TGI: > 10 µM
SK-MEL-28 melanoma
  TGI: > 10 µM
SK-MEL-5 melanoma
  TGI: > 10 µM
SK-OV-3 ovarian
  TGI: > 10 µM
SN12C renal
  TGI: > 10 µM
SNB-19 CNS
  TGI: > 10 µM
SNB-75 CNS
  TGI: > 10 µM
SR leukemia
  TGI: > 10 µM
SW-620 colon
  TGI: > 10 µM
T-47D breast
  TGI: > 10 µM
TK-10 renal
  TGI: > 10 µM
U251 CNS
  TGI: > 10 µM
UACC-257 melanoma
  TGI: > 10 µM
UACC-62 melanoma
  TGI: > 10 µM

Source: PubChem BioAssay (NCI)
